US11591323B2, “Muscarinic agonists as non-steroidal and non-opioid analgesics and methods of use thereof” (Barry University, priority 2019, dated 2023)

Assays:
M4 muscarinic receptor = molecular target: T1, M4 muscarinic receptor (Homo sapiens, UniProt P08173); assay: accumulation of IPX, M4 CHO cells (M4Gq); format: cell-based; parameters: host or cells: CHO cells, stably transfected; settings: for E′MAX / τ / RAi / Δlog(τ/KA): M4Gq (↑IPX); for E′MAX / τ: Table 8; for RAi: Table 8, relative to carbachol; for Δlog(τ/KA): Table 8, to carbachol
T1 sequence (P08173 1-479): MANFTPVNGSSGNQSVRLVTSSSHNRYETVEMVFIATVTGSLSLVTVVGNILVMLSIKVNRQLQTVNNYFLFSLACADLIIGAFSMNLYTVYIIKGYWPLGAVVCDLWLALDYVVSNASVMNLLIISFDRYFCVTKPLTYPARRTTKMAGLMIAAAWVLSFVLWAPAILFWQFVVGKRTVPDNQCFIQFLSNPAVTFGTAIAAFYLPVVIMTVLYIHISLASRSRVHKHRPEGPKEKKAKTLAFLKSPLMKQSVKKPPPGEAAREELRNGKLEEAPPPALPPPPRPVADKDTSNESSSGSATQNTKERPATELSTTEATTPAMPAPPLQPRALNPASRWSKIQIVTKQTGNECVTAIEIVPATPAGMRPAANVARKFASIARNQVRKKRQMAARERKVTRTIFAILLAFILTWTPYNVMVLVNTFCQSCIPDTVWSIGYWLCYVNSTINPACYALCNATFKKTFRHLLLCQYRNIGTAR
Procedure: To determine level of cAMP, cells in suspension were pre-incubated for 1 h with 0.4 μM [^3H]adenine, washed, and incubated for 10 min in the presence of isobutylmethylxanthine and 10 μM forskolin. […] Incubation was ended by addition of 0.2 ml of 2.5 M HCl to the samples. Samples were applied to alumina columns (1.5 g of alumina per column), washed with 2 ml ammonium acetate (pH=7.0) and eluted from columns with 4 ml ammonium acetate and measured by liquid scintillation spectrometry. […] The incubation was stopped by addition of 0.5 ml of chloroform methanol HCl mixture (2:1:0.1). After separation of water and organic phases, 0.6 ml of water phase was applied to Dowex columns (1.5 g of Dowex per column), washed by 20 ml of 60 mM ammonium formate/5 mM sodium borate buffer and eluted from columns with 4 ml of 1M ammonium formate/0.1 formic acid buffer and measured by liquid scintillation spectrometry.
Measurements of the production of cAMP and inositol phosphates: Levels of second messengers cAMP and inositol phosphates were determined in radiochemical chromatography assays as described previously. To determine level of cAMP, cells in suspension were pre-incubated for 1 h with 0.4 μM [^3H]adenine, washed, and incubated for 10 min in the presence of isobutylmethylxanthine and 10 μM forskolin. […] Incubation was ended by addition of 0.2 ml of 2.5 M HCl to the samples. Samples were applied to alumina columns (1.5 g of alumina per column), washed with 2 ml ammonium acetate (pH=7.0) and eluted from columns with 4 ml ammonium acetate and measured by liquid scintillation spectrometry. […] For this purpose, new CHO cell lines stably expressing promiscuous G15 G-protein and M2 or M4 receptor were generated by transfection with pCMV/hygro vector and hygromycin selection. To determine the rate of formation of inositol phosphates IPX, suspended cells were pre-incubated with 0.1 μM [^3H]myo-inositol for 60 min, washed, and incubated with 10 mM LiCl for 15 min. […] The incubation was stopped by addition of 0.5 ml of chloroform methanol HCl mixture (2:1:0.1). After separation of water and organic phases, 0.6 ml of water phase was applied to Dowex columns (1.5 g of Dowex per column), washed by 20 ml of 60 mM ammonium formate/5 mM sodium borate buffer and eluted from columns with 4 ml of 1M ammonium formate/0.1 formic acid buffer and measured by liquid scintillation spectrometry.
For bi-phasic response, curves were inhibitory and stimulatory phase were fitted separately. Operational Model of Functional Agonism
[formula] where y is functional response at concentration of tested compound x, EMAX is maximal response of the system, KA is equilibrium dissociation constant and nH is slope factor. Eq. 5 was fitted to data from functional experiments. Eq. 5 was fitted to data by the two-step procedure described earlier. […] In the second step, Eq. 5 with EMAX fixed to the value determined in the first step was fitted to individual experimental data sets. Relative Intrinsic Activity

[1] = system: submaxillary gland (rich in M3); assay: accumulation of IPX in dissipated rat submaxillary gland; format: cell-based; settings: in words
Procedure: Effects of compounds 6A and 7A were then measured ex vivo in dissipated rat tissues (FIG. 5). Accumulation of IPX was measured in dissipated brain cortex (rich in M1 & M3), submaxillary gland (M1 & M3), and ventral tegmental area (M5). Native tissues express about 10-times less muscarinic receptors than CHO cell lines. Accumulation of cAMP was measured in cerebellum (M2) and striatum (M4).
Rat dissipated tissues: Suspension of dissipated tissues from rat brain cortex, cerebellum, striatum, ventral tegmental area (VTA) and submaxillary glands was prepared as described previously in supplementary methods. Adult 8-weeks old male Wistar rats were scarified by cervical dislocation in accordance with current legislative and guidelines under permission of Czech Ministry of Agriculture 16OZ23113/2017-17214. Tissues were dissected immediately. Submaxillary glands were minced by scissors. Tissues were dispersed by incubation for 15 min at 37° C. in KHB supplemented with trypsin and trituration every 5 min. Large undissipated parts were removed by cell mesh. […]
Measurements of the production of cAMP and inositol phosphates: Levels of second messengers cAMP and inositol phosphates were determined in radiochemical chromatography assays as described previously. […] Samples were applied to alumina columns (1.5 g of alumina per column), washed with 2 ml ammonium acetate (pH=7.0) and eluted from columns with 4 ml ammonium acetate and measured by liquid scintillation spectrometry. […] After separation of water and organic phases, 0.6 ml of water phase was applied to Dowex columns (1.5 g of Dowex per column), washed by 20 ml of 60 mM ammonium formate/5 mM sodium borate buffer and eluted from columns with 4 ml of 1M ammonium formate/0.1 formic acid buffer and measured by liquid scintillation spectrometry.
To exclude the possibility that the observed effects of compounds 6A and 7A are the result of overexpression in the heterologous system, functional response to the compounds was measured ex vivo in dissipated native rat tissues. […] Accumulation of cAMP was measured in M2-rich cerebellum and M4-rich striatum.

Row | Structure (SMILES) | EC50 (M4 muscarinic receptor) [nM] | Kd (M4 muscarinic receptor) [nM] | E′MAX (M4 muscarinic receptor) [fold over basal] | τ (M4 muscarinic receptor) | RAi (M4 muscarinic receptor) | Δlog(τ/KA) (M4 muscarinic receptor) | accumulation of IPX [1]
1 | O=C1CCCN1CC#CCN1CCCC1 [oxotremorine, reference compound] | 162 | 200 | 1.58 ± 0.04 | 0.17 ± 0.02 | 4.69 ± 0.17 | −0.67 ± 0.06 | 
2 | C[N+](C)(C)CCOC(N)=O [carbachol, reference compound] |  |  | 1.78 ± 0.05 | 0.24 ± 0.03 |  | 0 | profound accumulation of IPX
3 | C1=CCN(Cc2cccs2)CC1.Cl [Compound 6A, 1-[(thiophen-2-yl)methyl]-1,2,3,6-tetrahydropyridin-1-ium chloride] |  |  |  |  | 0 |  | no increase in IPX levels
4 | C[N+]1(Cc2cccs2)CC=CCC1.[I-] (centres unmarked) [Compound 7A, 1-methyl-1-[(thiophen-2-yl)methyl]-1,2,3,6-tetrahydropyridin-1-ium iodide] |  |  |  |  | 0 |  | no increase in IPX levels
